From paper PMC6422671 (British Journal of Clinical Pharmacology, 2019)

Experiment: Clinical laboratory findings: haematology; data mean (standard deviation)
Type: in vivo, healthy men
From the text: Data are mean (standard deviation).

## C[C@@H](N)c1cc(Cl)ccc1Cn1c(=S)[nH]c(=O)c2[nH]ccc21 [AZD4831]
5 mg fasted, 24 h
  Basophils: 0.03 (0.01) 10^9 L^–1
  Eosinophils: 0.25 (0.12) 10^9 L^–1
  Erythrocyte MCH: 29.8 (1.2) pg
  Erythrocyte MCH concentration: 340 (5) g L^–1
  Erythrocyte MCV: 87.5 (3.3) fL
  Erythrocytes: 4.90 (0.28) 10^12 L^–1
  Haematocrit: 0.43 (0.02) ratio
  Haemoglobin: 146 (6) g L^–1
  Leukocytes: 5.43 (0.71) 10^9 L^–1
  Lymphocytes: 1.62 (0.37) 10^9 L^–1
  Monocytes: 0.37 (0.06) 10^9 L^–1
  Neutrophils: 3.07 (0.47) 10^9 L^–1
  Platelets: 246 (44) 10^9 L^–1
  Reticulocytes: 76.9 (15.3) 10^9 L^–1
5 mg fasted, 48 h
  Basophils: 0.04 (0.02) 10^9 L^–1
  Eosinophils: 0.23 (0.10) 10^9 L^–1
  Erythrocyte MCH: 29.6 (1.0) pg
  Erythrocyte MCH concentration: 338 (6) g L^–1
  Erythrocyte MCV: 87.7 (3.1) fL
  Erythrocytes: 4.88 (0.26) 10^12 L^–1
  Haematocrit: 0.43 (0.02) ratio
  Haemoglobin: 145 (7) g L^–1
  Leukocytes: 5.74 (1.20) 10^9 L^–1
  Lymphocytes: 1.60 (0.38) 10^9 L^–1
  Monocytes: 0.38 (0.06) 10^9 L^–1
  Neutrophils: 3.38 (1.02) 10^9 L^–1
  Platelets: 240 (50) 10^9 L^–1
  Reticulocytes: 84.4 (20.3) 10^9 L^–1
5 mg fasted, follow up
  Basophils: 0.04 (0.01) 10^9 L^–1
  Eosinophils: 0.26 (0.12) 10^9 L^–1
  Erythrocyte MCH: 29.5 (1.1) pg
  Erythrocyte MCH concentration: 334 (5) g L^–1
  Erythrocyte MCV: 88.2 (3.1) fL
  Erythrocytes: 4.98 (0.36) 10^12 L^–1
  Haematocrit: 0.44 (0.02) ratio
  Haemoglobin: 147 (8) g L^–1
  Leukocytes: 5.94 (1.03) 10^9 L^–1
  Lymphocytes: 1.47 (0.34) 10^9 L^–1
  Monocytes: 0.45 (0.15) 10^9 L^–1
  Neutrophils: 3.59 (0.73) 10^9 L^–1
  Platelets: 249 (38) 10^9 L^–1
  Reticulocytes: 91.6 (15.7) 10^9 L^–1
15 mg fasted, 24 h
  Basophils: 0.04 (0.01) 10^9 L^–1
  Eosinophils: 0.21 (0.07) 10^9 L^–1
  Erythrocyte MCH: 29.6 (0.7) pg
  Erythrocyte MCH concentration: 341 (2) g L^–1
  Erythrocyte MCV: 86.8 (2.0) fL
  Erythrocytes: 5.08 (0.27) 10^12 L^–1
  Haematocrit: 0.44 (0.03) ratio
  Haemoglobin: 150 (9) g L^–1
  Leukocytes: 5.94 (1.90) 10^9 L^–1
  Lymphocytes: 1.75 (0.55) 10^9 L^–1
  Monocytes: 0.46 (0.17) 10^9 L^–1
  Neutrophils: 3.37 (1.36) 10^9 L^–1
  Platelets: 193 (28) 10^9 L^–1
  Reticulocytes: 77.2 (18.6) 10^9 L^–1
15 mg fasted, 48 h
  Basophils: 0.04 (0.01) 10^9 L^–1
  Eosinophils: 0.22 (0.07) 10^9 L^–1
  Erythrocyte MCH: 29.5 (1.1) pg
  Erythrocyte MCH concentration: 340 (7) g L^–1
  Erythrocyte MCV: 86.9 (2.9) fL
  Erythrocytes: 5.03 (0.23) 10^12 L^–1
  Haematocrit: 0.44 (0.02) ratio
  Haemoglobin: 148 (8) g L^–1
  Leukocytes: 6.08 (1.88) 10^9 L^–1
  Lymphocytes: 1.71 (0.49) 10^9 L^–1
  Monocytes: 0.52 (0.21) 10^9 L^–1
  Neutrophils: 3.47 (1.39) 10^9 L^–1
  Platelets: 204 (25) 10^9 L^–1
  Reticulocytes: 78.1 (24.5) 10^9 L^–1
15 mg fasted, follow up
  Basophils: 0.04 (0.02) 10^9 L^–1
  Eosinophils: 0.22 (0.08) 10^9 L^–1
  Erythrocyte MCH: 29.1 (1.0) pg
  Erythrocyte MCH concentration: 334 (2) g L^–1
  Erythrocyte MCV: 87.3 (2.5) fL
  Erythrocytes: 5.06 (0.37) 10^12 L^–1
  Haematocrit: 0.44 (0.03) ratio
  Haemoglobin: 147 (10) g L^–1
  Leukocytes: 5.81 (1.43) 10^9 L^–1
  Lymphocytes: 1.63 (0.38) 10^9 L^–1
  Monocytes: 0.49 (0.07) 10^9 L^–1
  Neutrophils: 3.32 (1.20) 10^9 L^–1
  Platelets: 221 (33) 10^9 L^–1
  Reticulocytes: 89.9 (32.9) 10^9 L^–1
45 mg fasted, 24 h
  Basophils: 0.04 (0.02) 10^9 L^–1
  Eosinophils: 0.20 (0.12) 10^9 L^–1
  Erythrocyte MCH: 28.4 (2.1) pg
  Erythrocyte MCH concentration: 335 (8) g L^–1
  Erythrocyte MCV: 84.8 (5.8) fL
  Erythrocytes: 5.01 (0.18) 10^12 L^–1
  Haematocrit: 0.42 (0.03) ratio
  Haemoglobin: 142 (9) g L^–1
  Leukocytes: 5.28 (1.15) 10^9 L^–1
  Lymphocytes: 1.74 (0.42) 10^9 L^–1
  Monocytes: 0.37 (0.13) 10^9 L^–1
  Neutrophils: 2.83 (0.90) 10^9 L^–1
  Platelets: 220 (39) 10^9 L^–1
  Reticulocytes: 69.8 (16.4) 10^9 L^–1
45 mg fasted, 48 h
  Basophils: 0.04 (0.02) 10^9 L^–1
  Eosinophils: 0.21 (0.10) 10^9 L^–1
  Erythrocyte MCH: 28.4 (2.3) pg
  Erythrocyte MCH concentration: 335 (15) g L^–1
  Erythrocyte MCV: 84.9 (5.9) fL
  Erythrocytes: 5.02 (0.33) 10^12 L^–1
  Haematocrit: 0.43 (0.03) ratio
  Haemoglobin: 142 (8) g L^–1
  Leukocytes: 5.69 (1.06) 10^9 L^–1
  Lymphocytes: 1.79 (0.36) 10^9 L^–1
  Monocytes: 0.38 (0.10) 10^9 L^–1
  Neutrophils: 3.16 (0.95) 10^9 L^–1
  Platelets: 222 (44) 10^9 L^–1
  Reticulocytes: 77.3 (19.5) 10^9 L^–1
45 mg fasted, follow up
  Basophils: 0.05 (0.02) 10^9 L^–1
  Eosinophils: 0.20 (0.15) 10^9 L^–1
  Erythrocyte MCH: 28.3 (2.3) pg
  Erythrocyte MCH concentration: 333 (10) g L^–1
  Erythrocyte MCV: 85.0 (5.8) fL
  Erythrocytes: 5.08 (0.35) 10^12 L^–1
  Haematocrit: 0.43 (0.02) ratio
  Haemoglobin: 143 (7) g L^–1
  Leukocytes: 5.88 (1.09) 10^9 L^–1
  Lymphocytes: 1.61 (0.45) 10^9 L^–1
  Monocytes: 0.45 (0.13) 10^9 L^–1
  Neutrophils: 3.45 (1.25) 10^9 L^–1
  Platelets: 245 (38) 10^9 L^–1
  Reticulocytes: 79.1 (19.3) 10^9 L^–1
